Experimental findings from PubChem BioAssay (NCI) are described below.

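Five concentrations, 48 hours, 96-well plates. TGI: total growth inhibition.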

What all share (assay): NCI tumour cell line growth inhibition, 48 h
Test [1] deals with SNB-78 CNS.
Test [2] concerns KM12 colon.
Test [3] concerns K-562 leukemia.
Test [4] relates to UACC-257 melanoma.
Test [5] relates to SN12K1 renal.
For test [6], the system named is P388/ADR leukemia.
Test [7] has as its system UACC-62 melanoma.
Test [8] has as its system SK-MEL-2 melanoma.
Test [9] deals with NCI-H522 lung.
In test [10] the test system is MCF7 breast.
Test [11] deals with HT29 colon.
In test [12] the test system is RPMI-8226 leukemia.
In test [13] the test system is IGROV1 ovarian.
The subject of test [14] is SR leukemia.
Test [15] has as its system DMS 114 small cell lung.
The subject of test [16] is M14 melanoma.
The subject of test [17] is T-47D breast.
In test [18] the test system is PC-3 prostate.
For test [19], the system named is MDA-N.
Test [20] deals with DU-145 prostate.

`CC(C(=O)O)c1cnn(-c2ccccc2)c1-n1cccc1` (configuration not stated): the TGI in test [1], in [2], in test [3], in [4], in test [5] and in [6] was > 100 µM each time. Further, the TGI in [7], in [8], in test [9], in test [10], in test [11] and in [12] was > 100 µM throughout. The TGI in test [13] is > 100 µM.

Take `Oc1ccc2ccccc2c1N=Nc1ccc(F)cc1`: the TGI in [2], in test [3], in test [14], in test [7], in test [15] and in test [8] was > 100 µM in each case. Moreover, the TGI in test [9], in test [11], in test [16], in test [12] and in test [13] was > 100 µM in each case.

On to `CC(=O)OC[C@H]1[C@@H]2C(CC[C@]13CO3)OC(=O)CC(C)[C@]2(C)CCc1ccoc1` (some centres not stated), for which the TGI in test [2], in test [3], in test [4], in test [14], in [17] and in test [18] was > 100 µM in each case. For the same compound, the TGI in test [7], in [19], in [20], in [9], in test [10] and in test [11] was > 100 µM in each case. The TGI in [16] and in [13] was > 100 µM throughout.

As to `O=C(NCCCNC(=O)c1ccc2cc(O)c(O)cc2c1)c1ccc2cc(O)c(O)cc2c1`, the TGI in [2] was > 100 µM; in [3] it was > 100 µM; in test [4], > 100 µM; in [14], > 100 µM; in test [17] it was 90.6 µM; in [18] it was > 100 µM. Further, the TGI in test [7] is 42.7 µM; in [8] it was 34 µM; in test [19], > 100 µM; in test [20], 82.2 µM; in test [9], > 100 µM; in [10], > 100 µM. Further, the TGI in [11] is 81.2 µM; in test [16], > 100 µM; in [12], > 100 µM; in test [13], > 100 µM.

Regarding `CC[C@]12C=CCN3CC[C@@]4(c5ccc(OC)cc5N(C)[C@H]4[C@@](O)(C(=O)OC)[C@@H]1OC(C)=O)[C@@H]32`, the TGI in [1], in test [2], in [3], in test [4], in test [5] and in test [6] was > 200 µM throughout. Besides, the TGI in [7], in [15], in test [8], in test [9], in [10] and in test [11] was > 200 µM in each case. For the same compound, the TGI in test [12] and in [13] was > 200 µM throughout.

Consider `COc1ccc2c(c1)CCCc1cn[nH]c1-2`, for which the TGI in test [1], in test [2], in [3], in test [4], in test [5] and in test [6] was > 100 µM in each case. Also, the TGI in [7], in test [15], in test [8], in test [9], in [10] and in [11] was > 100 µM in each case. In addition, the TGI in [13] was > 100 µM.

`CCOCNC(=O)N(COCC)COCC`: the TGI in [1], in test [2], in test [3], in test [4], in test [7] and in [15] was > 100 µM in each case. Also, the TGI in test [8], in test [9], in test [11], in test [16], in test [12] and in test [13] was > 100 µM throughout.

In the case of `CN(CCCNc1ccc2ncn3c4ccccc4c(=O)c1c23)CCCN1C(=O)c2cccc3cc([N+](=O)[O-])cc(c23)C1=O`, the TGI turned out to be 1.36 µM in [2]; 0.398 µM in test [3]; 2.1 µM in test [4]; 3.42 µM in [17]; 6.88 µM in [8]; 2.01 µM in test [19]. For the same compound, the TGI stood at 1.48 µM in [9]; 0.114 µM in [10]; 0.0155 µM in [11]; 1.69 µM in [16]; 1.48 µM in [13].

As to `COc1ccc(-c2c(C#N)c(NC(=S)NC(=O)c3ccccc3)nc3c2CCCC3)cc1OC`, the TGI was > 100 µM in test [2]; > 100 µM in test [3]; > 100 µM in test [4]; > 100 µM in test [14]; 89 µM in test [17]; > 100 µM in test [18]. In addition, the TGI in test [7], in [19], in [20], in test [10], in test [11] and in test [16] was > 100 µM each time. Further, the TGI in [12] and in test [13] was > 100 µM in each case.

Take `CC(C)CCN=c1cc2n(-c3ccc(Cl)cc3)c3ccccc3nc-2cc1Nc1ccc(Cl)cc1`: the TGI is > 100 µM in test [1]; > 41.2 µM in [2]; 26.4 µM in test [3]; 19.7 µM in test [4]; 23.7 µM in test [5]; 10.2 µM in [6]. Also, the TGI in test [7] is 20.4 µM; in test [15] it was 7.63 µM; in [8], 12.3 µM; in test [9], 7.06 µM; in test [10], > 42 µM; in [11], 19.8 µM. In addition, the TGI came to 5.74 µM in test [12] and 17.9 µM in [13].
